Assay results as given in patent EP3502102A1, “STING INHIBITORS” (ECOLE POLYTECHNIQUE FEDERALE DE LAUSANNE (EPFL), priority 2017, dated 2019).
Where a chain is given by its changes, count along the chain named.

Key:
hsSTING = biological target: T1, hsSTING (Homo sapiens, UniProt Q86WV6); assay: Gel-based analysis of C-176-22 labelling in HEK293T cells expressing human STING; type: binding; details: HEK293T cells that expressed human STING
T1 construct: expressed in transfected cells; host or cells: HEK293T
Method: (§1) Reporter activity was measured 16 h after compound treatment. A nonlinear regression analysis was performed. […] Cytokine levels were normalized to DMSO-treated control cells. […] Nuclei were stained with DAPI. […] Depicted genes were measured by RT-qPCR. […] 16 h later Luciferase activity was measured. […] Flag-STING was immunoprecipitated and analysed by autoradiography.
HEK293T cells expressing Flag-STING were incubated with C-176-22 (0.25 µM) in serum free media, collected in PBSs and lysed by repetitive freezing and thawing. […] In-gel fluorescence was visualized using Fusion FX (Vilber Lourmat) and analysed by Fusion capt advance acquisition software.
We next sought to elucidate the molecular details of the interaction between C-178 and the TM part of STING. […] Having verified that C-176-22 is still active (Fig. 7), HEK293T cells expressing STING were exposed to C-176-22, lysed, coupled to a tetramethylrhodamine (TAMRA-)azide tag and C-176-22-modified proteins were visualized using in-gel fluorescence scanning. […]

STING = biological target: T2, STING (Mus musculus, UniProt Q3TBT3); assay: IFN-beta luciferase reporter in HEK293T cells transfected with STING, alone or with a cyclic dinucleotide synthase; type: cell-based; design: expressed in transfected cells; host or cells: HEK293T; details: HEK293T transfected with mmSTING, 16 h
T2 sequence (Q3TBT3 1-378): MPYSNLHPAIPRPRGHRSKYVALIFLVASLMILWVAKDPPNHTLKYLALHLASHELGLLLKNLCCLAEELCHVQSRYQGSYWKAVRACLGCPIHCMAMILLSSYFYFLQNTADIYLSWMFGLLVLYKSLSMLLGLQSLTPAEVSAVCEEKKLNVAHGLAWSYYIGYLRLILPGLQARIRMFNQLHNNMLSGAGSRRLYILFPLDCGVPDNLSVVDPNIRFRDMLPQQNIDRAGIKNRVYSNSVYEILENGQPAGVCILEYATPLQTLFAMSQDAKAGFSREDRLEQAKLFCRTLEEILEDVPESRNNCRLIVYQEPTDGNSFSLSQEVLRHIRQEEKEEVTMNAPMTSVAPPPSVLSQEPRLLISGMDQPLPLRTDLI
Method: as §1
HEK293T cells expressing murine STING with an N-terminal mCherry-tag ^28 were transfected using GeneJuice (Millipore) with a construct encoding for cyclic di-GMP synthase in conjunction with an IFN-• firefly luciferase reporter plasmid. 3 h after transfection cells were seeded in […] (Corning) coated with library compounds. For each compounds, a 40 nl volume was selected to obtain a concentration of 10 µM in the assay plates. The amount of DMSO in each well was normalised to 0.1%. After overnight treatment, cells were lysed in lysis buffer (25 mM Tris-phosphate (pH 7.8), 2 mM DTT, 2 mM 1,2-diaminocyclohexane-N,N,N',N'-tetraacetic acid, 10% glycerol, 1% Triton® X-100) for 20 min followed by the addition of firefly luciferase. Reporter activity was measured using a Tecan Infinite plate reader. The screen was performed using on ∼ 20.000 compounds from a chemically diverse compound collection available at the BSF core facility at EPFL.
In these cells, transient transfection of vectors encoding for cyclic di-GMP synthase (cdG-Syn) and an IFN-• reporter leads to robust induction of firefly luciferase activity. We used this system to perform a high-throughput chemical screen with a library of ∼ 20.000 small molecule compounds (Fig. 6b). To increase the selectivity of candidate compounds against the STING pathway, hits from the primary screen were counter-screened for their effect on RIG-I-driven activation of the IFN-• reporter. […] To further validate the two small molecules, we treated wild-type HEK293T cells with C-178 and C-176, in which STING was either expressed alone or in conjunction with cdG-Syn. […] We next conducted a limited structure-activity relationship (SAR) analysis. Since both C-178 and C-176 share a characteristic nitrofuran moiety, we prepared analogues of C-176/8 in which this structural motif was substituted (Fig. 1c).

mmSTING [1] = assay: Gel-based analysis of C-176-22 labelling (click chemistry, in-gel fluorescence) in HEK293T cells; type: binding, mouse; details: for labelling of STING mutant: 0.25 µM; for labelling of other protein targets / proteome-wide selectivity: whole cell lysate, C-176-22 0.25µM
Method: as §1
(§2) HEK293T cells expressing Flag-STING were incubated with C-176-22 (0.25 µM) in serum free media, collected in PBSs and lysed by repetitive freezing and thawing. 43 µl of lysed cells were treated with freshly prepared "click reagent" mixture containing tris(benzyltriazolylmethyl)amine (TBTA) (3 µl/sample, 3 mM in 1:4 DMSO:t-ButOH), tetramethylrhodamine (TAMRA) azide (2 µl/sample, 1.25 mM in DMSO), and freshly prepared CuSO4 (1 µl/sample) and tris-(2-carboxyethyl)phosphine hydrochloride (TCEP) (1µl/sample) and incubated at room temperature for 1 h. The reaction was quenched by addition of reducing sample buffer. In-gel fluorescence was visualized using Fusion FX (Vilber Lourmat) and analysed by Fusion capt advance acquisition software.
(§3) We next sought to elucidate the molecular details of the interaction between C-178 and the TM part of STING. Our SAR studies highlighted the importance of the nitrofuran motif for the activity of the discovered inhibitors. Given the strong electrophilic potential of this group, we suspected that C-178 might react with a TM residue generating a covalent interaction. […] To further test the hypothesis of covalent engagement of STING, we synthesized a derivative of C-176-22, which bears an alkyne group amenable for copper-catalyzed azide alkyne cycloaddition (Click Chemistry) and performed gel-based profiling studies (Fig. 3d). Having verified that C-176-22 is still active (Fig. 7), HEK293T cells expressing STING were exposed to C-176-22, lysed, coupled to a tetramethylrhodamine (TAMRA-)azide tag and C-176-22-modified proteins were visualized using in-gel fluorescence scanning. HEK293T cells without STING served as a control for assessing non-specific protein labelling. […] Based on the observed mass shift, we postulate a nitrobenzyl rearrangement-like reaction to generate covalent bonding between C-178 and STING (see below). […] We next sought to identify the residue through which C-178 achieves binding to STING. Among the naturally occurring amino acids, cysteine residues are well-known targets of electrophilic small molecules. […] In addition, binding to and inhibition of STING are two separable functions of C-178.

mmSTING [2] = biological target: T3, mmSTING (Mus musculus, UniProt Q3TBT3, V27A); assay: as above; type: binding; details: STING V27A; 0.25 µM
T3 construct: expressed in transfected cells; host or cells: HEK293T (lentiviral transduction, induced overnight)
T3 sequence (Q3TBT3 1-378 V27A): T2 sequence (Q3TBT3 1-378) with V27A
Method: as §1, §2, §3

mmSTING [3] = biological target: T4, mmSTING (Mus musculus, UniProt Q3TBT3); assay: as above; type: binding; details: HEK293T expressing STING
T4 construct: expressed in transfected cells; host or cells: HEK293T (lentiviral transduction, induced overnight)
T4 sequence (Q3TBT3 1-378): T2 sequence (Q3TBT3 1-378)
Method: as §1, §2, §3

T1 sequence (Q86WV6 whole entry): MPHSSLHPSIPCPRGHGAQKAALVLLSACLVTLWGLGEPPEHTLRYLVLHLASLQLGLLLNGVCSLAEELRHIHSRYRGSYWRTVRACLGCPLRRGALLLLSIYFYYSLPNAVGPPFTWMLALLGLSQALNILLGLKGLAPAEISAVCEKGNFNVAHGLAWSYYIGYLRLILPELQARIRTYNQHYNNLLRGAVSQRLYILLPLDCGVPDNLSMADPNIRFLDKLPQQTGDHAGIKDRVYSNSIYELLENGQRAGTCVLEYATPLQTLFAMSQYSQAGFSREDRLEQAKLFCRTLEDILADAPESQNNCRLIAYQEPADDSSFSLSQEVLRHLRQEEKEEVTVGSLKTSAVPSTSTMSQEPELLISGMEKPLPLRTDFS

labelling of human STING (hsSTING): hardly detectable, if at all
inhibitory activity, IFN-• luciferase reporter (STING): still active
inhibitory activity, IFN-• luciferase reporter (STING; listed as C176L): inhibitory active
labelling of STING mutant (mmSTING [2]): efficiently interacted
labelling of STING, in-gel fluorescence signal (37 kDa) (mmSTING [3]): marked, dose-dependent signal
Compound: C#Cc1ccc(NC(=O)c2ccc([N+](=O)[O-])o2)cc1 [C-176-22]
labelling band in cells without STING (mmSTING [1]; HEK293T cells that lacked STING expression): not detectable
labelling of STING mutant (mmSTING [1]; cysteine-to-alanine or cysteine-to-serine mutation at position 91): completely abolished
labelling of STING mutant (mmSTING [1]; mutated C88): did not influence
labelling of other protein targets / proteome-wide selectivity (mmSTING [1]): negligible labelling
labelling of other protein targets / proteome-wide selectivity (mmSTING [1]; listed as C176L): highly specifically labels mmSTING
